The source of these data is ChEMBL document CHEMBL3046763 (J Pestic Sci, 2000).

Series [1] deals with Spodoptera litura. Briefly: Insecticidal activity against Spodoptera litura assessed as mortality at 50 ppm by filter paper method. The format is functional.
The test system of series [2] is Delphacodes. Description: Insecticidal activity against Delphacodes striatellus assessed as mortality at 10 ppm by test tube method. The format is functional.
Series [3] relates to Delphacodes. Description: Insecticidal activity against Delphacodes striatellus assessed as mortality at 50 ppm by test tube method. The format is functional.
Series [4] concerns Spodoptera litura. Description: Insecticidal activity against Spodoptera litura assessed as mortality by filter paper method. The format is functional.
Series [5] is described as follows: Acute toxicity in po dosed Mus musculus ddY (mouse). The format is organism-based. Conditions: in vivo, read-out: LC50 (the source's name).

In brackets after ≈: the same amount, converted by molar mass.

For the compound `CCOC(=O)CC(SP(=S)(OC)OC)C(=O)OCC` (stereo not given) [MALATHION], the mortality at 50 ppm with Spodoptera litura [1] and with Delphacodes [3] was 100% each time. The mortality at 10 ppm in the series on Delphacodes [2] was 77%. The LC50 in the series on Spodoptera litura [4] is 8.3 µg/mL (≈ 25.1 µM). Also, the LD50 in series [5] was determined as 347 mg/kg.
